18 compounds from patent US5140009A (Tap Pharmaceuticals, Inc., priority 1990, dated 1992) can be followed below.

Numbered stars: 1 amine (or outer) side, 2 acyl side, 3 side chain; on linkers, the order of the positions; unused ones are H or OH. Square brackets hold non-standard residues; d marks the D form. Peptide text beside a SMILES is read from it. * marks the point of attachment. Propanoyl(3-indol-3-yl) = O=C(CCc1c[nH]c2ccccc12)*; Phenylacetyl(4-CF3) = O=C(Cc1ccc(C(F)(F)F)cc1)*; Propanoyl(3-(4-F-phenyl)) = O=C(CCc1ccc(F)cc1)*; Hydrocinnamoyl(2,4-F2) = O=C(CCc1ccc(F)cc1F)*; Propanoyl(3-(4-Cl-Ph)) = O=C(CCc1ccc(Cl)cc1)*; Phenylacetyl(4-Cl) = O=C(Cc1ccc(Cl)cc1)*; 1Nal = N[C@@H](Cc1cccc2ccccc12)C(=O)O; d1Nal = N[C@H](Cc1cccc2ccccc12)C(=O)O; dLys(iPr) = CC(C)NCCCC[C@@H](N)C(=O)O; Lys(iPr) = CC(C)NCCCC[C@H](N)C(=O)O; NMeY = CN[C@@H](Cc1ccc(O)cc1)C(=O)O; NMeF = CN[C@@H](Cc1ccccc1)C(=O)O; d3Pal = N[C@H](Cc1cccnc1)C(=O)O; d2Thi = N[C@H](Cc1cccs1)C(=O)O; Nicotinoyl = O=C(c1cccnc1)*; NMeS = CN[C@@H](CO)C(=O)O; Morpholide = C1CN(*)CCO1; CO = O=C([*:1])[*:2]

The first experiment has as its target T1, LHRH receptors (Rattus norvegicus, UniProt P30969).
T1 construct: Pituitary membranes containing LHRH receptors are prepared in batches from quick-frozen rat pituitaries; tissue Hilltop Labs; host or cells: rat pituitary membranes
T1 sequence (P30969 1-327): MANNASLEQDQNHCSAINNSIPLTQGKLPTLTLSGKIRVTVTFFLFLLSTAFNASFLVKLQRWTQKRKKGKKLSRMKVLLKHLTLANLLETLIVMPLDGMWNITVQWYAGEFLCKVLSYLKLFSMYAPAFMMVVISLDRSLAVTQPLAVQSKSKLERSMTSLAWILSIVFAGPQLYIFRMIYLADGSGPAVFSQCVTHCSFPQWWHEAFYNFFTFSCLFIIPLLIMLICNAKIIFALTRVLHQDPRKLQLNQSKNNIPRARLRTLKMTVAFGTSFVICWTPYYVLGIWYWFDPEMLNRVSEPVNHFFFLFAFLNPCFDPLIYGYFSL
The experiment can be described thus: Receptor Binding (radioligand receptor binding assay). To be noted: table 3; rat pituitary membranes, radioiodinated [D-Leu^6 -des Gly^10 ]-LHRH ethyl amide 50 pM, 2 hours at 4° C.; read-out: Receptor Binding pkI (converted).
On to `CCNC(=O)[C@@H]1CCCN1C(=O)[C@H](CCCN=C(N)N)NC(=O)[C@H](CC(C)C)NC(=O)[C@@H](Cc1c[nH]c2ccccc12)NC(=O)[C@H](Cc1ccc(O)cc1)NC(=O)[C@H](CO)NC(=O)CCc1c[nH]c2ccccc12` [Compound 24, (4-9)[N-(3-(3-Indole)propionyl)-Ser^4 -D-Trp^6 -Pro^9 -NHEt] LHRH] ({Propanoyl(3-indol-3-yl)}-SY[dW]LRP-NHEt), for which the Ki is 3.72 nM.
For the compound `CCNC(=O)[C@@H]1CCCN1C(=O)[C@H](CCCNC(=N)N)NC(=O)[C@H](CC(C)C)NC(=O)[C@@H](Cc1c[nH]c2ccccc12)NC(=O)[C@H](Cc1ccc(O)cc1)NC(=O)[C@H](CO)NC(=O)Cc1ccc(Cl)cc1` [Compound 75, (4-9)[N-(3-(4-Chlorophenyl)acetyl) -Ser^4 -D-Trp^6 -Pro^9 NHEt]LHRH] ({Phenylacetyl(4-Cl)}-SY[dW]LRP-NHEt), the Ki is 7.08 nM.
Same read-out and setting: then `CCNC(=O)[C@@H]1CCCN1C(=O)[C@H](CCCNC(=N)N)NC(=O)[C@H](CC(C)C)NC(=O)[C@@H](CCCCNC(C)C)NC(=O)[C@H](Cc1ccc(O)cc1)NC(=O)[C@H](CO)NC(=O)CCc1c[nH]c2ccccc12` [Compound 54, N-(3-(3-Indole)propionyl)-Ser-Tyr-D-Lys-(N-epsilon-isp)-Leu-Arg-Pro-NHEt] ({Propanoyl(3-indol-3-yl)}-SY[dLys(iPr)]LRP-NHEt), with 20.4 nM.
Same read-out and setting: with `CCNC(=O)[C@@H]1CCCN1C(=O)[C@H](CCCNC(=N)N)NC(=O)[C@H](CC(C)C)NC(=O)[C@@H](CCCCNC(=O)c1cccnc1)NC(=O)[C@H](Cc1ccc(O)cc1)NC(=O)[C@H](CO)NC(=O)CCc1c[nH]c2ccccc12` [Compound 52] ({Propanoyl(3-indol-3-yl)}-SY[dK](Nicotinoyl)LRP-NHEt) the figure was 21.9 nM; with `CCNC(=O)[C@@H]1CCCN1C(=O)[C@H](CCCNC(=N)N)NC(=O)[C@H](CC(C)C)NC(=O)[C@H](Cc1c[nH]c2ccccc12)NC(=O)[C@H](Cc1ccc(O)cc1)NC(=O)[C@H](CO)NC(=O)[C@H](Cc1c[nH]c2ccccc12)NC(=O)Cc1ccc(C(F)(F)F)cc1` [Compound 106, (3-9)[N-(4-Trifluoromethylphenyl)acetyl -Trp^3,6 -Pro^9 NHEt]LHRH] ({Phenylacetyl(4-CF3)}-WSYWLRP-NHEt), 0.851 nM.
The same measure, in the same setting: then `CCNC(=O)[C@@H]1CCCN1C(=O)[C@H](CCCNC(=N)N)NC(=O)[C@H](CC(C)C)NC(=O)[C@@H](Cc1c[nH]c2ccccc12)NC(=O)[C@H](Cc1ccc(O)cc1)N(C)C(=O)[C@H](CO)NC(=O)[C@H](Cc1c[nH]c2ccccc12)NC(=O)[C@H](Cc1ccccc1)NC(=O)N1CCOCC1` [Compound 114, (2-9)[N-(N-alpha-Morpholinocarbonyl)-Phe^2 -N-Me-Tyr^5 -D-Trp^6-Pro^9 -NHEt]LHRH] ({Morpholide-CO}-FWS[NMeY][dW]LRP-NHEt), with 0.00575 nM; and `CCNC(=O)[C@@H]1CCCN1C(=O)[C@H](CCCN=C(N)N)NC(=O)[C@H](CC(C)C)NC(=O)[C@@H](Cc1c[nH]c2ccccc12)NC(=O)[C@H](Cc1ccc(O)cc1)NC(=O)[C@H](CO)N(C)C(=O)[C@@H](Cc1c[nH]c2ccccc12)NC(=O)CCc1ccc(F)cc1` [Compound 121] ({Propanoyl(3-(4-F-phenyl))}-[dW][NMeS]Y[dW]LRP-NHEt), with 0.0955 nM; and `CCNC(=O)[C@@H]1CCCN1C(=O)[C@H](CCCNC(=N)N)NC(=O)[C@H](CC(C)C)NC(=O)[C@@H](Cc1c[nH]c2ccccc12)NC(=O)[C@H](Cc1ccc(O)cc1)NC(=O)[C@H](CO)NC(=O)[C@H](Cc1c[nH]c2ccccc12)NC(=O)Cc1ccc(Cl)cc1` [Compound 104, (3-9)[N-(4-Chlorophenyl)acetyl-Trp^3 -D-Trp^6 -Pro^9 NHEt]LHRH] ({Phenylacetyl(4-Cl)}-WSY[dW]LRP-NHEt), with 0.832 nM.

The same experiment, now with this note: table 4; rat pituitary membranes, radioligand 50 pM, 2 hours at 4° C.; read-out: Receptor Binding pkI (converted).
For `CC(C)C[C@H](NC(=O)[C@@H](CCCCNC(=O)c1cccnc1)NC(=O)[C@H](Cc1ccc(O)cc1)N(C)C(=O)[C@H](CO)NC(=O)[C@@H](Cc1cccnc1)NC(=O)CCc1ccc(Cl)cc1)C(=O)N[C@@H](CCCCNC(C)C)C(=O)N1CCC[C@H]1C(=O)N[C@H](C)C(N)=O` [Compound 194, (3-10)[N-(3-(4-Chlorophenyl)propionyl)-D-3-Pal^3 -NMeTyr^5 -D-Lys^6 (N-epsilon-nicotinyl)-Lys^8 (N-epsilon-isopropyl)-D-Ala^10]LHRH] ({Propanoyl(3-(4-Cl-Ph))}-[d3Pal]S[NMeY][dK](Nicotinoyl)L[Lys(iPr)]P[dA]-NH2), the Ki is 0.191 nM.
The same measure, in the same setting: then `CC(C)C[C@H](NC(=O)[C@@H](Cc1c[nH]c2ccccc12)NC(=O)[C@H](Cc1ccc(O)cc1)NC(=O)[C@H](CO)NC(=O)[C@H](Cc1c[nH]c2ccccc12)NC(=O)[C@H](Cc1cccc2ccccc12)NC(=O)N1CCOCC1)C(=O)N[C@@H](CCCNC(=N)N)C(=O)N1CCC[C@H]1C(=O)N[C@H](C)C(N)=O` [Compound 223, (2-10)[N-(alpha-Morpholinocarbonyl)-1-Nal^2 -D-Trp^6 -D-Ala^10]LHRH] ({Morpholide-CO}-[1Nal]WSY[dW]LRP[dA]-NH2), with 0.0269 nM; and `CCNC(=O)[C@@H]1CCCN1C(=O)[C@H](CCCNC(=N)N)NC(=O)[C@H](CC(C)C)NC(=O)[C@@H](Cc1c[nH]c2ccccc12)NC(=O)[C@H](Cc1ccc(O)cc1)NC(=O)[C@H](CO)NC(=O)[C@@H]1CCCN1C(=O)CCc1ccc(F)cc1` [Compound 148, (3-9)[N-(3-(4-Fluorophenyl)propionyl) -Pro^3 -D-Trp^6 -Pro^9 NHEt]LHRH] ({Propanoyl(3-(4-F-phenyl))}-PSY[dW]LRP-NHEt), with 0.055 nM.
Turning to `CC(C)C[C@H](NC(=O)[C@@H](Cc1cccnc1)NC(=O)[C@H](Cc1ccc(O)cc1)N(C)C(=O)[C@H](CO)NC(=O)[C@@H](Cc1cccc2ccccc12)NC(=O)CCc1ccc(F)cc1)C(=O)N[C@@H](CCCCNC(C)C)C(=O)N1CCC[C@H]1C(=O)N[C@H](C)C(N)=O` [Compound 208, (3-10)[N-(3-(4-Fluorophenyl)propionyl)-D-1-Nal^3 -NMeTyr^5 -D-3-Pal^6 -Lys^8 (N-epsilon-isopropyl)-D-Ala^10]LHRH] ({Propanoyl(3-(4-F-phenyl))}-[d1Nal]S[NMeY][d3Pal]L[Lys(iPr)]P[dA]-NH2), the Ki is 0.0126 nM.
The same measure, in the same setting: then `CCNC(=O)[C@@H]1CCCN1C(=O)[C@H](CCCNC(=N)N)NC(=O)[C@H](CC(C)C)NC(=O)[C@@H](Cc1c[nH]c2ccccc12)NC(=O)[C@H](Cc1ccc(O)cc1)NC(=O)[C@H](CO)NC(=O)[C@@H](Cc1cccs1)NC(=O)[C@H](Cc1ccccc1)NC(=O)N1CCOCC1` [Compound 236, (2-9)[N-(alpha-Morpholinocarbonyl)-Phe^2 -D-Thia^3 -D-Trp^6 -Pro^9 NHEt]LHRH] ({Morpholide-CO}-F[d2Thi]SY[dW]LRP-NHEt), with 0.708 nM.
On the same count and under the same terms, then `CC(C)C[C@H](NC(=O)[C@@H](Cc1cccnc1)NC(=O)[C@H](Cc1ccc(O)cc1)NC(=O)[C@H](CO)NC(=O)[C@@H](Cc1cccc2ccccc12)NC(=O)CCc1ccc(F)cc1)C(=O)N[C@@H](CCCCNC(C)C)C(=O)N1CCC[C@H]1C(=O)N[C@H](C)C(N)=O` [Compound 201, (3-10)[N-(3-(4-Fluorophenyl)propionyl)-D-1-Nal^3 -D-3Pal^6 -Lys^8 (N-epsilon-isopropyl)-D-Ala^10]LHRH] ({Propanoyl(3-(4-F-phenyl))}-[d1Nal]SY[d3Pal]L[Lys(iPr)]P[dA]-NH2), with 0.0204 nM; and `CCNC(=O)[C@@H]1CCCN1C(=O)[C@H](CCCN=C(N)N)NC(=O)[C@H](CC(C)C)NC(=O)[C@@H](CCCCNC(=O)c1cccnc1)NC(=O)[C@H](Cc1ccc(O)cc1)N(C)C(=O)[C@H](CO)NC(=O)[C@@H](Cc1c[nH]c2ccccc12)NC(=O)CCc1ccc(F)cc1F` [Compound 152, (3-9)[N-(3-(2,4-diFluorophenyl)propionyl) -D-Trp^3 -NMeTyr^5 -D-Lys^6 (N-epsilon-nicotinyl)-Pro^9 NHEt]LHRH] ({Hydrocinnamoyl(2,4-F2)}-[dW]S[NMeY][dK](Nicotinoyl)LRP-NHEt), with 0.0214 nM.
The same measure, in the same setting: then `CC(C)C[C@H](NC(=O)[C@@H](CCCCNC(=O)c1cccnc1)NC(=O)[C@H](Cc1ccccc1)N(C)C(=O)[C@H](CO)NC(=O)[C@@H](Cc1cccc2ccccc12)NC(=O)CCc1ccc(F)cc1)C(=O)N[C@@H](CCCCNC(C)C)C(=O)N1CCC[C@H]1C(=O)N[C@H](C)C(N)=O` [Compound 205, (3-10)[N-(3-(4-Fluorophenyl)propionyl)-D-1-Nal^3 -NMePhe^5 -D-Lys^6 (N-epsilon-nicotinyl)-D-Ala^10]LHRH] ({Propanoyl(3-(4-F-phenyl))}-[d1Nal]S[NMeF][dK](Nicotinoyl)L[Lys(iPr)]P[dA]-NH2), with 0.0302 nM; and `CC(C)C[C@H](NC(=O)[C@@H](CO)NC(=O)[C@H](Cc1ccc(O)cc1)N(C)C(=O)[C@H](CO)NC(=O)[C@@H](Cc1cccc2ccccc12)NC(=O)CCc1ccc(F)cc1)C(=O)N[C@@H](CCCNC(=N)N)C(=O)N1CCC[C@H]1C(=O)N[C@H](C)C(N)=O` [Compound 181, (3-10)[N-(3-(4-Fluorophenyl)propionyl)-D-1-Nal^3 -NMeTyr^5 -D-Ser^6 -D-Ala^10]LHRH] ({Propanoyl(3-(4-F-phenyl))}-[d1Nal]S[NMeY][dS]LRP[dA]-NH2), with 0.00398 nM; and `CCNC(=O)[C@@H]1CCCN1C(=O)[C@H](CCCN=C(N)N)NC(=O)[C@H](CC(C)C)NC(=O)[C@@H](Cc1c[nH]c2ccccc12)NC(=O)[C@H](Cc1ccc(O)cc1)N(C)C(=O)[C@H](CO)NC(=O)[C@@H](Cc1c[nH]c2ccccc12)NC(=O)CCc1ccc(F)cc1F` [Compound 155, (3-9)[N-(3-(2,4-diFluorophenyl)propionyl) -D-Trp^3,6 -NMeTyr^5 -Pro^9 NHEt]LHRH] ({Hydrocinnamoyl(2,4-F2)}-[dW]S[NMeY][dW]LRP-NHEt), with 0.049 nM.
